The source of these data is patent publication US11000533B2, “Connective tissue monitoring, compositions for connective tissue treatment and methods for treating connective tissue” (priority 2011, dated 2021).

Values joined by “and” are separate entries in the source; they are usually repeats but may differ in a detail not shown here. Equal entries are not always repeated.

The test system of one experiment is acute tendon injury. The experiment in a line: Time until positive clinical response (disappearance of swelling, heat and pain on palpation) after medication institution. The note with it: for Time until Clinical Response: acute tendon injury. The class given is in vivo, horse. The procedure: An acute tendon injury in a horse, is also known as a “Bowed Tendon”. This injury is clinically characterized by visible swelling of the tendon, heat to touch, as well as pain on palpation of the tendon. Clinical improvement of such a tendon injury is manifest by the diminution and ultimate absence of any swelling, heat and pain on palpation. The trials detailed above were carried out using the “polypaste” (multiple medications) approach to tendon injury in horses using “Tendon Guard Intense”. Three medications were used in initial tendon injury treatment: a proinflammatory cytokine inhibitor (Doxycycline 5 gm BD), an antioxidant or catechin (Green Tea extract/EGCG 5 gm BD) and an anti-inflammatory (Ibuprofen 5 gm BD). Throughout the testing process, a cohort of horses, were unable to take all of the individual ingredients planned, due to a number of reasons: The individual medication contraindications outlined, led to a cohort of horses in initial testing who consequently only received a single drug or a combination of two drugs (not three) to treat their acute tendon injury. These horses received either: All horses were carefully examined daily following acute injury and after institution of medication, by either an experienced veterinarian or trainer, for the presence of all of swelling, heat and pain on palpation of the tendon. A positive clinical response to treatment was defined as the absence of all three of swelling, heat and pain on palpation. The time from medication institution until disappearance of all three signs of swelling, heat and pain on palpation was recorded, as this was deemed the ultimate marker of clinical improvement of the tendon injury. Horses were immediately put back into light exercise once these acute signs had disappeared.

A further experiment deals with tendon injury. The experiment in a line: Additional studies with alternative combinations: resolution of pain and swelling. Type of experiment: in vivo, horse. To be noted: dose of 450 mg/day. The procedure: Additional studies have been performed with alternative anti-inflammatories and alternative NSAIDs. It is desirable to avoid using ibuprofen. The reason is ibuprofen stores in tissue and causes positive drug tests in racing horses. Copper indomethacin (CuIndomethacin) has been used as the anti-inflammatory and/or NSAID.
One of the advantages of CuIndomethacin is that it can be used in lower dosages. A dose of 200 mg (⅕ gram) has been used. It is hypothesized that a therapeutic effect may be achieved with 50 mg or ¼ of the usual dose or less by way of example.
In some embodiments, it is desirable to avoid using Doxycycline. The reason for this is that there is a worldwide push not to use antibiotics for purposes which are not infection related. For this reason, in som embodiments, curcumin, which is also a proinflammatory cytokine inhibitor, has been used at a dose of 450 mg/day with great success.

For the molecule `CC(C)Cc1ccc(C(C)C(=O)O)cc1` (stereo not shown) [Ibuprofen], the “Time until Clinical Response” value in the experiment with acute tendon injury (individual horses (8), Ibuprofen alone 5 gm BD) is 20 days and 25 days and 19 days (2×) and 18 days and 23 days and 27 days and 24 days. In the experiment on acute tendon injury (mean of 8 horses, Ibuprofen alone 5 gm BD), the “Mean time until a positive clinical response to treatment” value is on record as “(21.9 days)”.

Turning to `COc1cc(/C=C/C(=O)CC(=O)/C=C/c2ccc(O)c(OC)c2)ccc1O` [curcumin], in the experiment on tendon injury, the “Outcome of use as proinflammatory cytokine inhibitor in place of doxycycline” value is reported as “great success”.

Consider `C[C@H]1c2cccc(O)c2C(=O)C2=C(O)[C@]3(O)C(=O)C(C(N)=O)=C(O)[C@@H](N(C)C)[C@@H]3[C@@H](O)[C@@H]21` [Doxycycline], for which the “Time until Clinical Response” value in the experiment with acute tendon injury (individual horses (6), Doxycycline alone 5 gms BD) was 27 days (2×) and 21 days (2×) and 24 days and 28 days. The “Mean time until a positive clinical response to treatment” value with acute tendon injury (mean of 6 horses, Doxycycline alone 5 gms BD) is given as “(24.66 days)”.

As to `O=C(O[C@@H]1Cc2c(O)cc(O)cc2O[C@@H]1c1cc(O)c(O)c(O)c1)c1cc(O)c(O)c(O)c1` [EGCG, epigallocatechin gallate], the “Time until Clinical Response” value in the experiment with acute tendon injury (individual horses (5), EGCG alone 5 gms BD) was 24 days and 21 days (2×) and 28 days and 31 days. Moreover, in the experiment with acute tendon injury (mean of 5 horses, EGCG alone 5 gms BD), the “Mean time until a positive clinical response to treatment” value is given as “(25 days)”.
